# In patent US10376523B2, “Aqueous composition containing ripasudil, or a salt, or a solvate thereof” (KOWA COMPANY, LTD., priority 2014, dated 2019):
# What was measured:
# [1] = test system: Candida albicans NERC 1594 strain; assay: Test Example 1: growth inhibitory activity on Candida albicans (membrane filter method, colony count); assay type: cell-based; conditions: 2 g ripasudil monohydrochloride dihydrate in 270 mL phosphate buffer pH 7.2
# Method: In order to examine ripasudil for the presence or absence of growth inhibitory activity on microorganisms (bacteria and fungi), the following tests were performed using Pseudomonas aeruginosa as a bacterium and Candida albicans as a fungus. Two grams of ripasudil monohydrochloride dihydrate were dissolved in 270 mL of phosphate buffer (pH 7.2) to obtain a dilute sample solution. A sample was obtained by mixing 0.5 mL of the test bacterial suspension with 50 mL of the dilute sample solution (note that a mixture of 0.5 mL of the test bacterial suspension and 50 mL of phosphate buffer (pH 7.2) was used as a control sample). […] After the culture, the number of colonies formed was counted (note that the test was performed twice, and an average value was determined). From the determined number of colonies, a growth inhibitory ratio (%) was calculated using the following equation: Growth inhibitory ratio (%)=|(the number of colonies for the control sample−the number of colonies for the sample)|/the number of colonies for the control sample×100 Candida albicans NERC 1594 strain was seeded on the Sabouraud-dextrose liquid medium (Merck Corporation) and cultured at 20 to 25° C. for 44 to 46 hours. […] After the culture, the number of colonies formed was counted (note that the test was performed twice, and an average value was determined). A growth inhibitory ratio (%) was also calculated.
# [2] = test system: Pseudomonas aeruginosa NBRC 13275 strain; assay: Test Example 1: growth inhibitory activity on Pseudomonas aeruginosa (membrane filter method, colony count); assay type: cell-based; conditions: 2 g ripasudil monohydrochloride dihydrate in 270 mL phosphate buffer pH 7.2
# Method: In order to examine ripasudil for the presence or absence of growth inhibitory activity on microorganisms (bacteria and fungi), the following tests were performed using Pseudomonas aeruginosa as a bacterium and Candida albicans as a fungus. Pseudomonas aeruginosa NBRC 13275 strain was seeded on the soybean-casein digest medium (Merck Corporation) and cultured at 30 to 35° C. for 20 to 22 hours. The culture was then diluted with peptone saline buffer (pH 7.0) to 1,000 CFU/mL or less to obtain a test bacterial suspension. Two grams of ripasudil monohydrochloride dihydrate were dissolved in 270 mL of phosphate buffer (pH 7.2) to obtain a dilute sample solution. A sample was obtained by mixing 0.5 mL of the test bacterial suspension with 50 mL of the dilute sample solution (note that a mixture of 0.5 mL of the test bacterial suspension and 50 mL of phosphate buffer (pH 7.2) was used as a control sample). […] After the culture, the number of colonies formed was counted (note that the test was performed twice, and an average value was determined). From the determined number of colonies, a growth inhibitory ratio (%) was calculated using the following equation: Growth inhibitory ratio (%)=|(the number of colonies for the control sample−the number of colonies for the sample)|/the number of colonies for the control sample×100
# [3] = at a concentration of 0.001%; cited from earlier work
molecule,measurement,setting,value
"C[C@H]1CNCCCN1S(=O)(=O)c1cccc2cncc(F)c12 [ripasudil, 4-fluoro-5-[[(2S)-2-methyl-1,4-diazepan-1-yl]sulfonyl]isoquinoline]","Number of Formed Colonies, Sample","[1]; contact 30 minutes or longer, average of two tests, control sample 37 colonies",23
same,Growth Inhibitory Ratio,[1]; versus control sample,37.8%
same,"Number of Formed Colonies, Sample","[2]; contact 30 minutes or longer, average of two tests, control sample 47 colonies",0
same,Growth Inhibitory Ratio,[2]; versus control sample,100%
benzalkonium chloride,antimicrobial activity,[3],sufficient antimicrobial activity is not demonstrated
